The numbers were not newly measured in patent publication US4733002A, “Lipoxygenase inhibitor” (Green Cross Corporation, priority 1984, dated 1988), which cites them from elsewhere.

In the data set the test system is 5-lipoxygenase. The following applies: prior art, statement in words.

For `COC(=O)C=Cc1ccc(O)c(O)c1` [its methyl ester], the 5-lipoxygenase inhibiting activity result was “not a satisfactory one”. As to `O=C(O)/C=C/c1ccc(O)c(O)c1` [caffeic acid], the 5-lipoxygenase inhibiting activity entry is on record as “not a satisfactory one”.
